Source: PubChem BioAssay (NCI)
“And” between values parts separate entries of the source, which are not always exact repeats. Identical values can stand only once.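 How tested: cells in 96-well plates exposed to compound for 48 hours at five concentrations. At the GI50, growth is halved. Definition used: TGI = concentration required for complete inhibition of growth.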

Key:
Test in all cases: NCI-60 cell line screen, 48 h
[1] = system: SNB-78 CNS
[2] = system: M19-MEL melanoma
[3] = system: KM20L2 colon
[4] = system: LXFL 529 NSCLC
[5] = system: DLD-1 colon
[6] = system: XF 498 CNS

Structure (SMILES) | TGI [1] | TGI [2] [µM] | TGI [3] [µM] | TGI [4] [µM] | TGI [5] [µM] | TGI [6] [µM] | GI50 [3] | GI50 [5] | GI50 [6]
COC(=O)C1=C(C)N(NC(N)=O)C2(N)N(NC(N)=O)C(C)=C(C(=O)OC)C12C(=O)OC (stereo not drawn) | > 100 µM | > 100 | > 100 | > 100 | > 100 | > 100 |  |  | 
Clc1ccc(Cl)c2[s+]snc12 | > 100 µM | > 100 | > 100 | > 100 | > 100 | > 100 |  |  | 
N#CC(C(=O)/C(=N/N)C(C#N)c1ccc(Cl)cc1)c1ccc(Cl)cc1 (stereo not drawn) | > 100 µM | > 100 | > 100 | > 100 | > 100 | > 100 |  |  | 
COc1ccc(C=C2C(=O)OC(C)(C)OC2=O)cc1OC | > 100 µM | > 100 | > 100 | > 100 | > 100 | > 100 |  |  | 
C/C(O)=C(\N=O)C(=O)NCCc1ccccc1 | > 100 µM | > 100 | > 100 | > 100 | > 100 | > 31.6 |  |  | 
Cc1ccc(NC(=O)CC2C(=O)Nc3ccccc3S2=O)cc1C (stereo not drawn) | > 100 µM | > 100 | > 100 | > 100 | > 100 | > 100 |  |  | 
CC1OC(n2ncc(=O)[nH]c2=O)C=CC1=O (stereo not drawn) | 86.8 µM and > 100 µM | > 100 | > 100 | > 100 | > 100 | > 100 | > 100 µM and 40.7 µM | 77.2 µM and 31.2 µM | 54.8 µM and 22.9 µM
CSc1nc(NC2OCC(OC(C)=O)C(OC(C)=O)C2OC(C)=O)c2c(OC(C)=O)c(C)c(=O)oc2n1 (stereo not drawn) | > 100 µM | > 100 | > 100 | > 100 | > 100 | > 100 |  |  | 
CCN1C2=NC(=O)N(C)C(=O)C2(Cl)C(C(SC)S(=O)(=O)c2ccc(C)cc2)c2ccccc21 (stereo not drawn) | 58.3 µM | 61.5 | > 100 | 59.3 | > 100 | > 100 |  |  | 
COc1ccc(/C=N/N=C(\N)NO)cc1OC | > 100 µM | > 100 | > 100 | > 100 | > 100 | > 100 |  |  | 
